From ChEMBL document CHEMBL4804283, “Stk19 inhibitors for treatment of cancer” (2020)
The source made the active and inactive calls. No cut-off for these calls is given here.

Legend:
[1] = molecular target: T1, Inactive serine/threonine-protein kinase 19 (Homo sapiens) (UniProt P49842); assay: Inhibition of recombinant human STK19 assessed as NRAS phosphorylation at 1-3 uM relative to control
T1 sequence (whole entry): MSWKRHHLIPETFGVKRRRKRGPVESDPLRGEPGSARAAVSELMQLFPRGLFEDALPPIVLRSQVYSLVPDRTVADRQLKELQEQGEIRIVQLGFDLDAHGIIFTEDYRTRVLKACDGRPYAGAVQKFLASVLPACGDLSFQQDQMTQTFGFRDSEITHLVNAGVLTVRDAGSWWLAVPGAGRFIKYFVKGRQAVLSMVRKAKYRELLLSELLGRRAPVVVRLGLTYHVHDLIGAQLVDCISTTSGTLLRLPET

[2] = Toxicity in C57BL/6J mouse assessed as effect on aspartate aminotransferase level at 25 mg/kg, administered twice daily for 20 days; format: organism-based; conditions: in vivo, 480 h
[3] = Toxicity in C57BL/6J mouse assessed as effect on albumin level at 25 mg/kg, administered twice daily for 20 days; format: organism-based; conditions: in vivo, 480 h
[4] = Toxicity in C57BL/6J mouse assessed as effect on creatinine level at 25 mg/kg, administered twice daily for 20 days; format: organism-based; conditions: in vivo, 480 h
[5] = system: hTERT; assay: Inhibition of colony formation in hTERT/p53DD/CDK4 (R24C) immortal melanocytes expressing STK19 D89N mutant at 3 uM relative to control; format: functional; conditions: Homo sapiens
[6] = system: hTERT; assay: Antiproliferative activity against hTERT/p53DD/CDK4 (R24C) immortal melanocytes expressing STK19 D89N mutant at 3 uM relative to control; format: functional, tissue-based; conditions: Homo sapiens
[7] = system: SK-MEL-2; assay: Antitumor activity against human SK-MEL-2 cells xenografted in nude mouse assessed as tumor growth inhibition; format: functional
[8] = system: SK-MEL-2; assay: Antitumor activity against human SK-MEL-2 cells xenografted in nude mouse assessed as induction of apoptosis at 25 mg/kg, administered for 21 days; format: functional, organism-based
[9] = system: T2, Inactive serine/threonine-protein kinase 19 (Homo sapiens), P49842 [D89N]; assay: Inhibition of STK19 in STK19-depleted human primary melanocytes expressing STK19 D89N mutant at 1-3 uM assessed as NRAS phosphorylation relative to control; format: tissue-based; conditions: Melanocyte
T2 sequence (whole entry): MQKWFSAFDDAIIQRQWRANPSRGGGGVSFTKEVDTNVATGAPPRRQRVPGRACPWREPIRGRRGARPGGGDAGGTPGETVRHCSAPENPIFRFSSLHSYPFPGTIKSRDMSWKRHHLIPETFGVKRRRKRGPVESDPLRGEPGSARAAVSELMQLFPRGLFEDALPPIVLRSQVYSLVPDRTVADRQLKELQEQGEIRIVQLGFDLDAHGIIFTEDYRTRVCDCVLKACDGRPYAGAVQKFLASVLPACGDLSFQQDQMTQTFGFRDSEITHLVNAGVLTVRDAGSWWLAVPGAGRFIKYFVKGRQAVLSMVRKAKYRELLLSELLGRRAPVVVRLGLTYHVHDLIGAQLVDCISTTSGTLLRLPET

[10] = system: SK-MEL-2; assay: Inhibition of STK19 in nude mouse xenografted with human SK-MEL-2 cells assessed as decrease in NRAS phosphorylation at 25 mg/kg; format: functional, organism-based
[11] = system: SK-MEL-2; assay: Inhibition of G9a in nude mouse xenografted with human SK-MEL-2 cells assessed as decrease in H3K9 methylation at 50 mg/kg; format: functional, organism-based
[12] = molecular target: T1, Inactive serine/threonine-protein kinase 19 (Homo sapiens); assay: Inhibition of STK19 in human WM2032 cells expressing NRAS Q61R and wild-type BRAF at 1-3 uM assessed as NRAS signaling relative to control; format: cell-based
[13] = molecular target: T1, Inactive serine/threonine-protein kinase 19 (Homo sapiens); assay: Inhibition of STK19 in human UACC62 cells expressing wild-type NRAS and BRAF V600E mutant at 1-3 uM assessed as NRAS signaling relative to control; format: cell-based; conditions: UACC-62
[14] = molecular target: T1, Inactive serine/threonine-protein kinase 19 (Homo sapiens); assay: Inhibition of STK19 in human UACC62 cells expressing wild-type NRAS and BRAF V600E mutant at 1-3 uM assessed as MEK-ERK signaling relative to control; format: cell-based; conditions: UACC-62
[15] = molecular target: T1, Inactive serine/threonine-protein kinase 19 (Homo sapiens); assay: Inhibition of STK19 in human SK-MEL-2 cells expressing NRAS Q61R and wild-type BRAF at 100 nM assessed as H3K9 methylation relative to control; format: cell-based

In the case of `COc1cc2nc(NC3CC3)nc(NC3CCN(C(C)C)CC3)c2cc1OC.O=C(O)C(F)(F)F`, the Activity [1] is reported as “Active”, the Activity [2] is reported as “Non-Toxic” and the Activity [3] is reported as “Non-Toxic”. The Activity [4] was “Non-Toxic”, the Activity [5] was “Active” and the Activity [6] was “Active”. For the same compound, the TGI [7] was “Dose-Dependent Effect”, the Activity [8] was “Active” and the inhibition [9] was “Active”. For the same compound, the inhibition [10] was “Active”, the inhibition [11] was “inactive” and the inhibition [12] was “Active”. The inhibition [13] was “inactive”, the inhibition [14] was “inactive” and the inhibition [15] was “inactive”.
